The record followed here is patent US7713965B2, “7-substituted 3-carboxy-oxadiazino-quinolone derivatives, their preparation and their application as anti-bacterials” (Vetoquinol SA, priority 2008, dated 2010).

Assay type in all cases: cell-based
One experiment has as its system E. coli ATCC 25922. The experiment can be described thus: MIC determination by microdilution in liquid medium, E. coli ATCC 25922. The following applies: Escherichia coli, ATCC25922. A general note: Broth dilution looks for growth in wells or tubes with falling amounts of substance.
Experiment [1] relates to Staphylococcus aureus (r = resistant). The experiment can be described thus: MIC determination by microdilution in liquid medium, Sta aur r. The following applies: read-out: MIC Sta aur r.
Experiment [2] concerns Pseudomonas aeruginosa (s = susceptible). The experiment can be described thus: MIC determination by microdilution in liquid medium, Pse aer s. The settings on record: susceptible strain.
Another experiment relates to Escherichia coli. The experiment can be described thus: MIC determination by microdilution in liquid medium, E coli.
For experiment [3], the system named is Mannheimia haemolytica (r = resistant). Briefly: MIC determination by microdilution in liquid medium, Man hae r. The following applies: resistant strain.
A further experiment concerns M. bovirhinis. Briefly: MIC determination by microdilution in liquid medium, M. bovirhinis. The following applies: Mycoplasma.
The next experiment has as its system Clostridium perfringens. The experiment can be described thus: microbe, parasite or virus in culture. The settings on record: read-out: MIC Clo per.
Experiment [4] deals with Mannheimia haemolytica (s = susceptible). Briefly: MIC determination by microdilution in liquid medium, Man hae s. The following applies: susceptible strain.
The next experiment concerns Mycoplasma bovis. Briefly: MIC determination by microdilution in liquid medium, Myc bov. The settings on record: Mycoplasmopsis bovis.
Experiment [5] concerns Pseudomonas aeruginosa (r = resistant). Briefly: MIC determination by microdilution in liquid medium, Pse aer r. The settings on record: read-out: MIC Pse aer r.
Experiment [6] concerns Bordetella bronchiseptica. The experiment can be described thus: MIC determination by microdilution in liquid medium, Bor bron.
For a further experiment, the system named is Streptococcus uberis. Briefly: MIC determination by microdilution in liquid medium, Str ube.
Experiment [7] deals with Staphylococcus aureus (s = susceptible). Briefly: MIC determination by microdilution in liquid medium, Sta aur s. The settings on record: susceptible strain.
Another experiment deals with E. faecalis ATCC 29212. The experiment can be described thus: MIC determination by microdilution in liquid medium, E. faecalis ATCC 29212. The following applies: Enterococcus faecalis, ATCC29212, read-out: MIC E. fae-calis ATCC 29212.

Values after ≈ are worked out from the molar mass of the structure shown.

Take `CN1COc2c(N3CC(N)C(C)(C)C3)c(F)cc3c(=O)c(C(=O)O)cn1c23` (racemic) [Example 33, 9-((R,S)-4-Amino-3,3-dimethyl-pyrrolidin-1-yl)-8-fluoro-3-methyl-6-oxo-2,3-dihydro-6H-1-oxa-3,3a-diaza-phenalene-5-carboxylic acid]: the MIC against E. coli ATCC 25922 stood at 0.03 µg/mL (≈ 0.0797 µM); in [1] it was 2 µg/mL (≈ 5.31 µM); in experiment [2], 0.5 µg/mL (≈ 1.33 µM); against Escherichia coli, 0.06 µg/mL (≈ 0.159 µM); in experiment [3], 8 µg/mL (≈ 21.3 µM); with M. bovirhinis, 0.25 µg/mL (≈ 0.664 µM). The MIC in the experiment with Clostridium perfringens was 0.06 µg/mL (≈ 0.159 µM); in experiment [4], 0.06 µg/mL (≈ 0.159 µM); with Mycoplasma bovis it was 0.5 µg/mL (≈ 1.33 µM); in experiment [5] it was 8 µg/mL (≈ 21.3 µM); in [6], 0.5 µg/mL (≈ 1.33 µM); against Streptococcus uberis, 0.12 µg/mL (≈ 0.319 µM). The molecule also yielded an MIC in experiment [7] of less than 0.03 µg/mL.

Consider `CN1COc2c(N3CCC(CNc4cnccn4)C3)c(F)cc3c(=O)c(C(=O)O)cn1c23` (stereo not drawn) [Example 1, 8-fluoro-3-methyl-6-oxo-9-[3-(pyrazin-2-ylaminomethyl)-pyrrolidin-1-yl]-2,3-dihydro-6H-1-oxa-3,3a-diaza-phenalene-5-carboxylic acid], for which the MIC against E. coli ATCC 25922 was 0.12 µg/mL (≈ 0.272 µM); in experiment [1], 0.5 µg/mL (≈ 1.14 µM); with E. faecalis ATCC 29212, no more than 0.03 µg/mL; in [2], 8 µg/mL (≈ 18.2 µM); with Escherichia coli, 0.25 µg/mL (≈ 0.568 µM); in experiment [3], 16 µg/mL (≈ 36.3 µM). Moreover, the MIC with M. bovirhinis is 0.06 µg/mL (≈ 0.136 µM); in the experiment on Clostridium perfringens, 0.06 µg/mL (≈ 0.136 µM); in experiment [4], 0.06 µg/mL (≈ 0.136 µM); in the experiment on Mycoplasma bovis, less than 0.03 µg/mL; in experiment [5], 16 µg/mL (≈ 36.3 µM); in experiment [6] it was 0.5 µg/mL (≈ 1.14 µM). Moreover, the MIC (against Streptococcus uberis; in experiment [7]) was less than 0.03 µg/mL each time.

Take `CN1COc2c(N3CCC(Nc4cnccn4)C3)c(F)cc3c(=O)c(C(=O)O)cn1c23` (stereo not drawn) [Example 7]: the MIC in the experiment with E. coli ATCC 25922 is 0.25 µg/mL (≈ 0.586 µM); in experiment [1] it was 0.5 µg/mL (≈ 1.17 µM); with E. faecalis ATCC 29212, no more than 0.03 µg/mL; in [2], 2 µg/mL (≈ 4.69 µM); in the experiment with Escherichia coli, 0.25 µg/mL (≈ 0.586 µM); in experiment [3], 16 µg/mL (≈ 37.5 µM). Moreover, the MIC was 0.06 µg/mL (≈ 0.141 µM) in the experiment on M. bovirhinis; 0.06 µg/mL (≈ 0.141 µM) in the experiment on Clostridium perfringens; 0.06 µg/mL (≈ 0.141 µM) in [4]; less than 0.03 µg/mL with Mycoplasma bovis; 16 µg/mL (≈ 37.5 µM) in [5]; 0.5 µg/mL (≈ 1.17 µM) in experiment [6]. In addition, the MIC against Streptococcus uberis was 0.06 µg/mL (≈ 0.141 µM); in experiment [7], less than 0.03 µg/mL.

As to `CN1COc2c(N3CCC(Nc4ccccn4)C3)c(F)cc3c(=O)c(C(=O)O)cn1c23` (stereo not drawn) [Example 8], the MIC in the experiment with E. coli ATCC 25922 amounted to 0.12 µg/mL (≈ 0.282 µM); in experiment [1], 4 µg/mL (≈ 9.4 µM); in the experiment with E. faecalis ATCC 29212, 0.25 µg/mL (≈ 0.588 µM); in experiment [2] it was 8 µg/mL (≈ 18.8 µM); against Escherichia coli, 0.5 µg/mL (≈ 1.18 µM); in experiment [3], 32 µg/mL (≈ 75.2 µM). Besides, the MIC is 0.06 µg/mL (≈ 0.141 µM) against M. bovirhinis; less than 0.03 µg/mL in the experiment on Clostridium perfringens; 0.25 µg/mL (≈ 0.588 µM) in experiment [4]; 0.06 µg/mL (≈ 0.141 µM) against Mycoplasma bovis; greater than 32 µg/mL in experiment [5]; greater than 1 µg/mL in experiment [6]. The results for the MIC (against Streptococcus uberis; in experiment [7]) were 0.25 µg/mL (≈ 0.588 µM) and 0.06 µg/mL (≈ 0.141 µM), respectively.

As to `CN1COc2c(N3CCC(Nc4nncs4)C3)c(F)cc3c(=O)c(C(=O)O)cn1c23` (stereo not drawn) [Example 10, 8-Fluoro-3-methyl-6-oxo-9-[3-([1,3,4]thiadiazol-2-ylamino)-pyrrolidin-1-yl]-2,3-dihydro-6H1-oxa-3,3a-diaza-phenalene-5-carboxylic acid], the MIC was 1 µg/mL (≈ 2.31 µM) in the experiment with E. coli ATCC 25922; 4 µg/mL (≈ 9.25 µM) in experiment [1]; 0.25 µg/mL (≈ 0.578 µM) with E. faecalis ATCC 29212; 4 µg/mL (≈ 9.25 µM) in experiment [2]; 0.25 µg/mL (≈ 0.578 µM) in the experiment with Escherichia coli; greater than 32 µg/mL in experiment [3]. Besides, the MIC in the experiment on M. bovirhinis is 2 µg/mL (≈ 4.62 µM); in the experiment with Clostridium perfringens, less than 0.03 µg/mL; in experiment [4] it was 0.03 µg/mL (≈ 0.0694 µM); against Mycoplasma bovis, 0.12 µg/mL (≈ 0.277 µM); in experiment [5], greater than 32 µg/mL; in [6], 2 µg/mL (≈ 4.62 µM). The MIC (in the experiment with Streptococcus uberis; in experiment [7]) was less than 0.03 µg/mL each time.

For the molecule `CN1COc2c(N3CC[C@H](Nc4nccs4)C3)c(F)cc3c(=O)c(C(=O)O)cn1c23` [Example 18, 8-Fluoro-3-methyl-6-oxo-9-[(S)-3-(thiazol-2-ylamino)-pyrrolidin-1-yl]-2,3dihydro-6H-1-oxa-3,3a-diaza-phenalene-5-carboxylic acid], the MIC was 0.06 µg/mL (≈ 0.139 µM) in the experiment on E. coli ATCC 25922; 4 µg/mL (≈ 9.27 µM) in experiment [1]; no more than 0.03 µg/mL in the experiment on E. faecalis ATCC 29212; 4 µg/mL (≈ 9.27 µM) in experiment [2]; 0.5 µg/mL (≈ 1.16 µM) with Escherichia coli; greater than 32 µg/mL in [3]. Also, the MIC against M. bovirhinis is no more than 0.03 µg/mL; in the experiment on Clostridium perfringens, 0.06 µg/mL (≈ 0.139 µM); in experiment [4] it was 0.12 µg/mL (≈ 0.278 µM); in the experiment with Mycoplasma bovis it was 0.25 µg/mL (≈ 0.579 µM); in experiment [5], 32 µg/mL (≈ 74.2 µM); in [6], 0.25 µg/mL (≈ 0.579 µM). Further, the figures for the MIC (in the experiment on Streptococcus uberis; in experiment [7]) were 0.25 µg/mL (≈ 0.579 µM) and less than 0.03 µg/mL, respectively.

Turning to `CN1COc2c(N3CC[C@@H](Nc4nccs4)C3)c(F)cc3c(=O)c(C(=O)O)cn1c23` [Example 19, 8-Fluoro-3-methyl-6-oxo-9-[(R)-3-(thiazol-2-ylamino)-pyrrolidin-1-yl]-2,3-dihydro-6H-1-oxa-3,3a-diaza-phenalene-5-carboxylic acid], the MIC was found to be 0.25 µg/mL (≈ 0.579 µM) against E. coli ATCC 25922; 0.25 µg/mL (≈ 0.579 µM) in [1]; 0.06 µg/mL (≈ 0.139 µM) with E. faecalis ATCC 29212; 2 µg/mL (≈ 4.64 µM) in experiment [2]; 0.06 µg/mL (≈ 0.139 µM) with Escherichia coli; 8 µg/mL (≈ 18.5 µM) in experiment [3]. Moreover, the MIC in the experiment with M. bovirhinis is 0.25 µg/mL (≈ 0.579 µM); with Clostridium perfringens it was less than 0.03 µg/mL; in [4] it was 0.03 µg/mL (≈ 0.0695 µM); against Mycoplasma bovis, less than 0.03 µg/mL; in [5], 8 µg/mL (≈ 18.5 µM); in experiment [6], 0.12 µg/mL (≈ 0.278 µM). The MIC (against Streptococcus uberis; in experiment [7]) was less than 0.03 µg/mL throughout.

Regarding `CN1COc2c(N3CC[C@H](NC(=O)C(F)(F)F)C3)c(F)cc3c(=O)c(C(=O)O)cn1c23` [Example 28, 8-Fluoro-3-methyl-6-oxo-9-[(S)-3-(2,2,2-trifluoro-acetylamino)-pyrrolidin-1-yl]-2,3-dihydro-6H-1-oxa-3,3a-diaza-phenalene-5-carboxylic acid], the MIC against E. coli ATCC 25922 was 0.03 µg/mL (≈ 0.0675 µM); in [1], 4 µg/mL (≈ 9 µM); in the experiment with E. faecalis ATCC 29212, 1 to 2 µg/mL (≈ 2.25 to 4.5 µM); in [2], 0.06 µg/mL (≈ 0.135 µM); against Escherichia coli, 0.03 µg/mL (≈ 0.0675 µM); in [3], 4 µg/mL (≈ 9 µM). Further, the MIC in the experiment on Clostridium perfringens was found to be 0.12 µg/mL (≈ 0.27 µM); in experiment [4] it was 0.008 µg/mL (≈ 0.018 µM); in the experiment with Mycoplasma bovis it was 1 µg/mL (≈ 2.25 µM); in [5], 1 µg/mL (≈ 2.25 µM); in experiment [6] it was 1 µg/mL (≈ 2.25 µM); with Streptococcus uberis, 0.25 µg/mL (≈ 0.563 µM). The same molecule showed an MIC in experiment [7] of 0.12 µg/mL (≈ 0.27 µM).

As for `CN1COc2c(N3C[C@H](N)C(C)(C)C3)c(F)cc3c(=O)c(C(=O)O)cn1c23` [Example 35, 9-((R)-4-Amino-3,3-dimethyl-pyrrolidin-1-yl)-8-fluoro-3-methyl-6-oxo-2,3-dihydro-6H-1-oxa-3,3a-diaza-phenalene-5-carboxylic acid], the MIC is 0.03 µg/mL (≈ 0.0797 µM) against E. coli ATCC 25922; 2 µg/mL (≈ 5.31 µM) in [1]; 0.25 µg/mL (≈ 0.664 µM) in the experiment with E. faecalis ATCC 29212; 0.5 µg/mL (≈ 1.33 µM) in [2]; 0.06 µg/mL (≈ 0.159 µM) against Escherichia coli; 8 µg/mL (≈ 21.3 µM) in experiment [3]. The MIC with Clostridium perfringens turned out to be 0.12 µg/mL (≈ 0.319 µM); in [4], 0.06 µg/mL (≈ 0.159 µM); against Mycoplasma bovis, 0.5 µg/mL (≈ 1.33 µM); in experiment [5], 8 µg/mL (≈ 21.3 µM); in [6], 1 µg/mL (≈ 2.66 µM); in the experiment on Streptococcus uberis, 0.12 µg/mL (≈ 0.319 µM). The MIC in [7] was 0.06 µg/mL (≈ 0.159 µM).
